How the values were obtained:
Format in all cases: physicochemical
[1] = Critical micelle concentration
Experimental: (§1) Certain surfactant properties and performance metrics of synthesized surfactants structures according to General Structure 1 (GS1), including several exemplary surfactant blends prepared according to the methods disclosed previously herein, were measured. […] For example, the α-OMFS-12-1/O surfactant with a sulfonate on the surfactant's alkyl chain provides faster wetting kinetics, as compared to the ring sulfonate 4-OMFS-12-1/O which has slower fabric wetting kinetics yet generates more foam in high shear conditions, or the disulfonate surfactant sulfonated on both the ring and alkyl chain (4,α-OMFS-12-1/O) which has slower fabric wetting and generates less foam than either of the aforementioned monosulfonates surfactants, yet has a higher solubility that can be helpful in building product formulations. Accordingly, these differing performance metrics can be leveraged by selecting the particular disclosed surfactant structure corresponding to the performance metrics useful in a specific application of the surfactant structure.

[2] = Surface tension at critical micelle concentration; conditions: at CMC
Experimental: as §1

[3] = Solubility in deionized water; conditions: deionized water at 20° C.
Experimental: Certain surfactant properties and performance metrics of synthesized surfactants structures according to General Structure 1 (GS1), including several exemplary surfactant blends prepared according to the methods disclosed previously herein, were measured.

[4] = Krafft point (temperature below which the surfactant forms a solid precipitate)
Experimental: as §1

| SMILES | CMC (critical micelle concentration) [1] [ppm] | Surface Tension at critical micelle concentration [2] [mN/m] | Solubility [3] [g/mL] | Krafft Point [4] [°C] |
| --- | --- | --- | --- | --- |
| CCCCCCCCCCC(C(=O)c1cc(S(=O)(=O)O)c(C)o1)S(=O)(=O)O.N.N (stereo not drawn) [NH4^+4,α-OMFS-12-1/0] | 3545 | 39 | 0.5 | <0 |
| CCCCCCCCCCCCCCCCC(C(=O)c1cc(S(=O)(=O)[O-])c(C)o1)S(=O)(=O)[O-].[Na+].[Na+] (stereo not drawn) [Na^+ 4,α-OMFS-18-1/0] | – | – | – | <0 |
| CCCCCCCCCCC(C(=O)c1ccc(C)o1)S(=O)(=O)[O-].[Na+] (stereo not drawn) [Na^+ α-OMFS-12-1/0] | – | – | 0.8 | <0 |

Results, then the compound that gave them:

| CMC (critical micelle concentration) [1] [ppm] | Surface Tension at critical micelle concentration [2] [mN/m] | Solubility [3] [g/mL] | Krafft Point [4] [°C] | SMILES |
| --- | --- | --- | --- | --- |
| – | – | 0.9 | <0 | CCCCCCCCCCC(C(=O)c1cc(S(=O)(=O)[O-])c(C)o1)S(=O)(=O)[O-].[Na+].[Na+] (stereo not drawn) [Na^+ 4,α-OMFS-12-1/0] |
| – | – | 0.6 | <0 | CCCCCCCCCCCCC(C(=O)c1cc(S(=O)(=O)[O-])c(C)o1)S(=O)(=O)[O-].[Na+].[Na+] (stereo not drawn) [Na^+ 4,α-OMFS-14-1/0] |
| 1480 | 42 | 0.8 | <0 | CCCCCCCCCCCC(=O)c1cc(S(=O)(=O)[O-])c(C)o1.[Na+] [Na^+ 4-OMFS-12-1/0] |
